Results from patent publication US20250282895A1, “PHARMACEUTICAL COMPOSITIONS OF CHEMOTHERAPEUTIC AGENTS BASED ON BETA-S[…]-AMINO ACID DERIVATIVES” (priority 2021, published 2025).
Where a name gives a salt, the structure may show the parent alone.

Experiment: Comparative stability, Formulation 1 (Na3-citrate buffered)
Type: physicochemical
Conditions: Formulation 1, 25° C.
Description: The stability of Compound (1c) either as the HCl salt or as the free base was compared to the stability of melphalan HCl and/or bendamustine HCl in various pharmaceutical formulations and at different concentrations and at temperatures of 0° C. or 25° C.
The stability of the compounds in the pharmaceutical formulations was determined at concentrations within the range from 0.4 mg/mL to 0.5 mg/mL, from 0.9 mg/mL to 1.1 mg/mL, and from 1.8 mg/mL to 2.1 mg/mL.
The amount of the active pharmaceutical ingredient (API) (Compound (1c), melphalan or bendamustine) in the pharmaceutical formulations at different times during storage was determined using HPLC/UV as described in detail for Example 4 and Example 5.
The first formulation included a mixture of 57.5 vol-% 1,2-propylene glycol (1,2-PG), 30 vol-% Kolliphor® HS 15 (Solutol®, Macrogol®, BASF AG/SigmaAldrich), and 12.5 vol-% ethanol (EtOH), and the resulting solution was further diluted and adjusted to pH 6.8 using a pH 8.1-8.3 Na3-citrate buffer (51 mM Na3-citrate·2H2O and 73.6 mM NaCl).
The pH 8.1-8.3 Na3-citrate buffer was prepared form 1.50 g (5.10 mmol) of Na3-citrate. 2H2O (Na3C6H5O7·2H2O; MW 294.10 g/mol; J. T. Baker, 3650-01) and 0.43 g (7.36 mmol) of sodium chloride (NaCl; MW 58.44 g/mol; SigmaAldrich, S9888) dissolved to 100 mL with double-distilled water (dd-H2O) (Arrowhead). The solution was filtered through a 0.45 μm nylon syringe filter, and the pH of the solution was adjusted to 8.1-8.3 with a saturated aqueous solution of sodium hydrogencarbonate (NaHCO3).
The excipient mixture was prepared from 4.77 g (62.7 mmol; 4.6 mL) 1,2-propylene glycol (1,2-PG; MW 76.09 g/mol; d 1.036; Acros Organics, 220870010), 2.52 g (2.40 mL, d 1.05) of melted (15 s microwaving) Kolliphor® HS 15 (BASF AG/SigmaAldrich, 42966), and 0.798 g (17.32 mmol, 1.0 mL) of ethanol (EtOH, MW 46.06 g/mol, d 0.798, KOPTEC, V1016). The clear viscous mixture was warmed to about 40° C. before use (water bath).
A series of 12 mL glass vials each containing 6.1 mg ([…]) of Compound (1c) mono-hydrochloride salt (corresponding to 5.5 mg of Compound (1c) as the free base) were prepared as described in Example 5 through lyophilization of aliquots of an acidified stock solution.
660 μL (6 vol-%) of pre-warmed excipient mixture were added to the Compound (1c) mono-hydrochloride salt in the vial. Compound (1c) mono-hydrochloride salt was dissolved with gentle heating and vortexing. The viscous solution was further diluted with 10,340 μL (94 vol-%) of pH 8.1-8.3 Na3-citrate buffer to provide 11.0 mL of a clear, colorless formulation with a concentration of 0.5 mg/ml of Compound (1c) as a monohydrochloride salt and a pH of 6-7.
330 μL (6 vol-%) of pre-warmed excipient mixture were added to the Compound (1c) mono-hydrochloride salt in the vial. Compound (1c) mono-hydrochloride salt was dissolved with gentle heating and vortexing. The viscous solution was further diluted with 5,170 μL (94 vol-%) of pH 8.1-8.3 Na3-citrate buffer to provide 5.5 mL of a clear, colorless formulation with a concentration of 1.0 mg/mL of Compound (1c) as a monohydrochloride salt and a pH of 6-7.
165 μL (6 vol-%) of pre-warmed excipient mixture were added to the Compound (1c) mono-hydrochloride salt in the vial. Compound (1c) mono-hydrochloride salt was dissolved with gentle heating and vortexing. The viscous solution was further diluted with 2,585 μL (94 vol-%) of pH 8.1-8.3 Na3-citrate buffer to provide 2.75 mL of a clear, colorless formulation with a concentration of 2.0 mg/ml of Compound (1c) as a monohydrochloride salt and a pH of 6-7.
The solutions were placed in glass vials and stored at room temperature (about 25° C.), and the amount of Compound (1c) derived from the mono hydrochloride salt (mono HCl salt) of compound of Formula (1c) was measured at intervals using analytical high pressure liquid chromatography coupled to a UV detector (HPLC/UV) as described in Example 4.

Cc1ccc(N(CCCl)CCCl)cc1C[C@H](N)CC(=O)O [Compound (1c)•HCl, (S)-3-amino-4-(5-(bis(2-chloroethyl)amino)-2-methylphenyl) butanoic acid mono hydrochloride salt]
% API (pH 6.8, 0.5 hours, 0.4-0.5 mg/mL): 79%
% API (pH 6.8, 0.5 hours, 0.9-1.1 mg/mL): 84%
% API (pH 6.8, 0.5 hours, 1.8-2.1 mg/mL): 88%
% API (pH 6.8, 2.0 hours, 0.4-0.5 mg/mL): 52%
% API (pH 6.8, 2.0 hours, 0.9-1.1 mg/mL): 55%
% API (pH 6.8, 2.0 hours, 1.8-2.1 mg/mL): 65%
